Experimental data: US8933270B2, “Use of docasatrienes, resolvins, and their stable analogs in the treatment of airway diseases and asthma” (The Brigham and Women's Hospital, Inc., priority 2002, dated 2015)

Key:
PMN infiltration [1] = assay: Zymosan A-induced peritonitis; assay type: in vivo, FVB mice; conditions: dose increased to 200 ng, intravenous bolus
PMN infiltration [2] = assay: Zymosan A-induced peritonitis; assay type: in vivo, FVB mice; conditions: for inhibition of PMN/leukocyte infiltration: i.v. bolus before zymosan A, lavage at 2 h
Procedure: (§1) FIG. 5 depicts Bioimpact properties of omega-3-derived Resolvins. A) Human glioma cells: Inhibition of TNF-stimulated IL-1β transcripts DBTRG-05MG cells 10^6/ml were stimulated with 50 ng/ml of human recombinant TNFα for 16 hours to induce expression of IL-1β transcripts. Concentration dependence with COX-2 products: 17-HDHA (n), 13-HDHA (l)and di-/tri-HDHA (n). […] (insets) Results are representative of RT-PCR gels of MG cells exposed to 100 nM of 13-HDHA or 17-HDHA and graphed after normalization of the IL-1β transcripts using GAPDH. B) Influence of eicosanoids and docosanoids on fMLP-induced neutrophil migration across micovascular endothelial monolayers Neutrophils (1×10^6 cells/monolayer) were exposed to vehicle containing buffer, or indicated concentrations of aspirin-triggered LXA4 analog (closed diamonds) 5S,12,18R-triHEPE (closed squares), 17R-HDHA (closed circles) or 13-HDHA (closed triangles) for 15 minutes at 37° C. Neutrophils were then layered on HMVEC monolayers and stimulated to transmigrate by a 10^−8 M fMLP gradient for 1 hr at 37° C. Transmigration was assessed by quantitation of the neutrophil marker myeloperoxidase. Results are presented as mean±SEM number of PMN (n=8-12 monolayers per condition). C) Reduction of PMN in murine peritonitis and skin pouch peritonitis: Compounds (100 ng in 120 μL sterile saline) were injected by intravenous bolus injection into the mouse tail vein and followed by 1 ml zymosan A (1 mg/ml) into the peritoneum. Peritoneal lavages were collected (2 h) and cell types were enumerated.
Human PMN transendothelial migration was quantitated by monitoring myeloperoxidase (MPO) an azurophilic granule marker as in (34, 37). Inflammatory exudates were initiated with intrapouch injection of recombinant mouse TNFα (100 ng/pouch; R&D Systems) into dorsal air pouches (10) of 6-8 wk male FVB mice fed laboratory rodent diet 5001 (Lab Diet, Purina Mills) containing less than 0.25% arachidonic acid, 1.49% EPA and 1.86% DHA followed by ASA (500 μg) at 3.5 h and 300 μg DHA/pouch at 4 h post-TNFα injection. At 6 h (within the resolution phase), pouches were lavaged (3 ml saline) and exudate cells were enumerated Inhibition of TNFα stimulated (100 ng/pouch) PMN infiltration with i.v. tail injection of either 17R-HDHA (as prepared with COX-2 vide infra), 5S,12,18R-HEPE, or a 15-epi-LXA4 analog were determined with pouch lavages taken at 4 h. Peritonitis was performed using 6 to 8-week-old FVB male mice (Charles River Laboratories) fed laboratory Rodent Diet 5001 (Purina Mills) that were anesthetized with isoflurane, and compounds to be tested (125 μl) were administered intravenously. Zymosan A in 1 ml (1 mg/ml) was injected ˜1-1.5 min later in the peritoneum. Each test compound (100 ng/incubation, i.e. 17R-HDHA in ethanol) or vehicle alone was suspended in ˜5 μl and mixed in sterile saline 120 μl. Two hours after the intraperitoneal injections, and in accordance with the Harvard Medical Area Standing Committee on Animals protocol #02570, mice were euthanized and peritoneal lavages rapidly collected for enumeration.
Peritonitis was induced in 6 to 8 week old male FVB mice by peritoneal injection of 1 mg Zymosan A. Compounds 4,17S and 10,17S-diHDHA were injected by intravenous bolus injection, 1.5 minutes before Zymosan A treatment. Two hours after induction of peritonitis, rapid peritoneal lavages were collected and cell type enumeration was performed.

[3] = test system: IL-1β transcripts in DBTRG-05MG cells; assay: Inhibition of TNF-stimulated IL-1β transcripts (RT-PCR); assay type: cell-based, human; conditions: Homo sapiens, DBTRG-05MG; 50 ng/ml TNFα, 16 h; read-out: IC50, inhibition of TNFα-induced IL-1β transcripts / cytokine expression
Procedure: as §1, with “C) Reduction of PMN in murine peritonitis and skin pouch peritonitis: Compounds (100 ng in 120 μL sterile saline) were injected by intravenous bolus injection into the mouse tail vein and followed by 1 ml zymosan A (1 mg/ml) into the peritoneum. Peritoneal lavages were collected (2 h) and cell types were enumerated.” left out
Human glioma cells DBTRG-05MG cells (ATCC) were cultured as recommended by ATCC. […] Results were analyzed using the NIH Image program (http://rsb.info.nih.gov/nih-image).

leukotrienes [4] = assay: Leukotriene formation in murine exudates; assay type: in vivo; conditions: n=4, not shown
human PMN = assay: fMLP-induced neutrophil migration across microvascular endothelial monolayers (MPO); assay type: cell-based; conditions: nM range; 10^-8 M fMLP gradient, 1 hr
Procedure: FIG. 5 depicts Bioimpact properties of omega-3-derived Resolvins. A) Human glioma cells: Inhibition of TNF-stimulated IL-1β transcripts DBTRG-05MG cells 10^6/ml were stimulated with 50 ng/ml of human recombinant TNFα for 16 hours to induce expression of IL-1β transcripts. Concentration dependence with COX-2 products: 17-HDHA (n), 13-HDHA (l)and di-/tri-HDHA (n). […] (insets) Results are representative of RT-PCR gels of MG cells exposed to 100 nM of 13-HDHA or 17-HDHA and graphed after normalization of the IL-1β transcripts using GAPDH. […] Transmigration was assessed by quantitation of the neutrophil marker myeloperoxidase. […]
Human PMN transendothelial migration was quantitated by monitoring myeloperoxidase (MPO) an azurophilic granule marker as in (34, 37). […] At 6 h (within the resolution phase), pouches were lavaged (3 ml saline) and exudate cells were enumerated Inhibition of TNFα stimulated (100 ng/pouch) PMN infiltration with i.v. tail injection of either 17R-HDHA (as prepared with COX-2 vide infra), 5S,12,18R-HEPE, or a 15-epi-LXA4 analog were determined with pouch lavages taken at 4 h. […]

leukocyte infiltration = assay: TNFα-induced dorsal air pouch; assay type: in vivo, FVB mice
leukotrienes [5] = assay: Leukotriene formation by human PMN; assay type: cell-based; conditions: in vitro, n=4, not shown
[6] = test system: thromboxane and prostanoids; assay: Thromboxane and prostanoid production in air pouch exudates; assay type: in vivo, FVB mice; conditions: ASA 500 μg per pouch
From the text: It is noteworthy that the Lab Diet 5001 used to feed these mice contained 1.86% DHA and 1.49% EPA with <0.25% arachidonic acid (Purina Mills).

human recombinant COX-2 = target: T1, human recombinant COX-2 (Homo sapiens, UniProt P35354); assay: Impact of NSAIDs on COX-2 conversion of DHA; assay type: biochemical
T1 construct: made in house; host or cells: Sf9 insect cells (microsomal fractions)
T1 sequence (P35354 18-604): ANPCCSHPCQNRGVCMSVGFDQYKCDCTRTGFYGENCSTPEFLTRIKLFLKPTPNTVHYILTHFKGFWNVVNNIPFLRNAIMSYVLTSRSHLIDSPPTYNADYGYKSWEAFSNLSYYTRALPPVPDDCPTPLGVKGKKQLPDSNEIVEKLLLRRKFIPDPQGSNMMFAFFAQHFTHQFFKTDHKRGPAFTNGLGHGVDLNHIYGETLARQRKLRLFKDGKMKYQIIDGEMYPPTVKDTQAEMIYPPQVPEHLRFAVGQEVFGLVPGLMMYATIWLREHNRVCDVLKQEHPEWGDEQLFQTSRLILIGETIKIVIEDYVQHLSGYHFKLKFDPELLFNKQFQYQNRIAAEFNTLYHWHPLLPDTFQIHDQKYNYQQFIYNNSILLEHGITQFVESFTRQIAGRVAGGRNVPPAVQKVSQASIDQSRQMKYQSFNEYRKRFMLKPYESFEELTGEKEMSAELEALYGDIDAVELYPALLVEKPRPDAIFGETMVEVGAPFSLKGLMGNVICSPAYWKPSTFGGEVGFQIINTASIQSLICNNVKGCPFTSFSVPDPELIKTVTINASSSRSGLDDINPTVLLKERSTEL
Procedure: (§2) Human recombinant COX-2 was overexpressed in Sf9 insect cells (ATCC). The microsomal fractions (˜8 μl) were suspended in Tris (100 mM, pH 8.0) as in (35). ASA was incubated (˜2 mM, 37° C., 30 min) with COX-2 before addition of DHA (10 μM), or in some experiments [1-^14C]-labeled DHA (from American Radiolabeled Chemicals, Inc.), and conversions were monitored in parallel using [1^−14C]-labeled C20:4 (with ASA) (as in FIG. 2; also see text).
(§3) Incubations were extracted with deuterium-labeled internal standards (15-HETE and C20:4) for LC-MS-MS analysis as in (33) using a Finnigan LCQ liquid chromatography ion trap tandem mass spectrometer (San Jose, Calif.) equipped with a LUNA C18-2 (150×2 mm×5 μm or 100×2 mm×5 μm) column and a rapid spectra scanning UV diode array detector that monitored UV absorbance ˜0.2 min prior to samples entering the MS-MS. All intact cell incubations and in vivo exudates were stopped with 2 ml cold methanol and kept at −80° C. for >30 minutes. Samples were extracted using C18 solid phase extraction and analyzed using GC-MS (see Table 2) (Hewlett-Packard), thin layer chromatography or tandem liquid chromatography-mass spectrometry (LC-MS-MS). Also, a Chiralcel OB-H column (4.6×250 mm; J. T. Baker) was used to determine R and S alcohol configurations of monohydroxy-PUFA using isocratic mobile phase (hexane:isopropanol; 97.5:2.5, vol:vol, with a 0.6 ml/min flow rate). Detailed procedures for isolation, quantitation and structural determination of lipid-derived mediators were recently reported (36) and used here essentially as reported for elucidation of novel products.
Results are the mean±SEM, n=3. Products were extracted, identified, and quantitated using deuterium internal standards and LC-MS-MS (see Methods).

ASA-acetylated COX-2 = target: T2, ASA-acetylated COX-2 (Homo sapiens, UniProt P35354); assay: Substrate conversion by ASA-acetylated COX-2; assay type: biochemical; conditions: C20:4 to 15R-HETE, DHA to 17R-HDHA; mean±S.E.M., n=3
T2 construct: made in house; host or cells: Sf9 insect cells (microsomal fractions), then treated with about 2 mM ASA
T2 sequence (P35354 18-604): T1 sequence (P35354 18-604)
Procedure: as §2
as §3, with “Also, a Chiralcel OB-H column (4.6×250 mm; J. T. Baker) was used to determine R and S alcohol configurations of monohydroxy-PUFA using isocratic mobile phase (hexane:isopropanol; 97.5:2.5, vol:vol, with a 0.6 ml/min flow rate).” left out

CCC=CCC(O)C=CC=CCC=CCC=CC=CC(O)CCC(=O)O (stereo not drawn) [4,17S-diHDHA]
effectiveness relative to 10,17-docosatriene (PMN infiltration [1]): essentially equally effective | potency relative to comparator at equal dose (PMN infiltration [2]; PMN/leukocyte infiltration, FIG. 16 and FIG. 18): approximately half as potent as 10,17-docosatriene | inhibition of PMN/leukocyte infiltration (PMN infiltration [2]): dose-dependent inhibition

CC/C=C\CC(O)/C=C/C=C\C/C=C\C/C=C\C/C=C\CCC(=O)O (stereo not drawn) [17R-HDHA, 17-hydroxy-docosa-4Z,7Z,10Z,13Z,15E,19Z-hexaenoic acid]
IC50 [3]: ~0.05 nM | formation of leukotrienes (leukotrienes [4]): prevented formation of leukotrienes | inhibition of PMN/leukocyte infiltration (PMN infiltration [2]): potent inhibitor | direct impact on PMN transmigration across endothelial monolayers (human PMN): did not directly inhibit | regulation of PMN/leukocyte recruitment into the air pouch (leukocyte infiltration; i.v. or local (intrapouch) administration, lavage at 4 h): did regulate in vivo PMN exudate cell numbers | formation of leukotrienes (leukotrienes [5]): prevented formation of leukotrienes

CC(=O)Oc1ccccc1C(=O)O [ASA, aspirin]
in vivo production of thromboxane and prostanoids [6]: completely inhibited | % Increase of 17-HDHA (human recombinant COX-2; NSAID incubated 30 min with COX-2, ASA 2 mM, indomethacin 200 μM, acetaminophen 500 μM, NS398 100 μM, mean±SEM, n=3): 97.8 ± 2.0% | inhibition at 2000 µM (human recombinant COX-2; read-out: % Inhibition of 13-HDHA): 85.7 ± 5.6%

CCCCC/C=C\C/C=C\C/C=C\C/C=C\CCCC(=O)O [C20:4, arachidonic acid]
substrate conversion (ASA-acetylated COX-2): 67%±5%

CC[C@@H](O)/C=C/C=C\C[C@@H](O)/C=C/C=C/C=C\[C@@H](O)CCCC(=O)O [EPA-derived 5,12,18R series product]
prevention of leukocyte diapedesis and exudate formation relative to 15-epi-lipoxin A4 stable analog (leukocyte infiltration; FIG. 5C): as effective as a potent stable analog of 15-epi-lipoxin A4
